In patent US20240166664A1, “TRIHETEROCYCLIC COMPOUND, PREPARATION METHOD THEREFOR, AND APPLICATION THEREOF” (SHANGHAI APEIRON THERAPEUTICS COMPANY LIMITED, priority 2021, published 2024):
Like-named read-outs stand apart in the source and are kept apart here.

Legend:
NCI-H1373 cells = experiment: Cell proliferation inhibition assay (CTG method); format: cell-based, human; conditions: read-out: IC50 (nM) for NCI-H1373 cell viability
PARP7 = molecular target: T1, PARP7 (Homo sapiens, UniProt Q7Z3E1); experiment: Test of inhibitory activity against PARP7 enzyme (PARP7 FLAG-tag, Probe A, time-resolved fluorescence); format: biochemical; conditions: PARP7 12 nM, Probe A 2 nM, 1 hr room temperature
T1 construct: purchased BPS 80527
T1 sequence (Q7Z3E1 1-657): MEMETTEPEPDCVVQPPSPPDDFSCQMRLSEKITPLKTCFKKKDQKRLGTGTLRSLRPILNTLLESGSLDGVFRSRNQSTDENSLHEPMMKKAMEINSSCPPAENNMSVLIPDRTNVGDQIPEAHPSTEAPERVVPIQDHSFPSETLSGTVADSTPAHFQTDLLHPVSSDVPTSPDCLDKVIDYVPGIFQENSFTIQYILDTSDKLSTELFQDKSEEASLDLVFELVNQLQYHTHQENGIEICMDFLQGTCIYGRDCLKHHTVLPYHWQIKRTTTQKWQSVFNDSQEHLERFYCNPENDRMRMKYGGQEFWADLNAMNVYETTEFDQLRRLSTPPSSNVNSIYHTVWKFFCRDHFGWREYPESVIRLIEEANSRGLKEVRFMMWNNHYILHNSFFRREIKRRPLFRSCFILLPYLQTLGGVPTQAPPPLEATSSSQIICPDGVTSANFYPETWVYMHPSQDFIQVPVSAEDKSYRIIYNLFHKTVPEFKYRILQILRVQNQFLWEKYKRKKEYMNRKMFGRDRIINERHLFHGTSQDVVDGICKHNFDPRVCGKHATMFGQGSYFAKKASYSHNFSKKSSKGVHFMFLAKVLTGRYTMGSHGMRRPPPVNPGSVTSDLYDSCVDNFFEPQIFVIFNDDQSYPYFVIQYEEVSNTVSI

[1] = Homo sapiens, NCI-H1373, 144 h, NCI-H1373 cells, 6 days incubation, CTG method

IC50 (NCI-H1373 cells; [1]) | IC50 (PARP7) | IC50 (NCI-H1373 cells; Homo sapiens, NCI-H1373, 144 h) | IC50 (NCI-H1373 cells; NCI-H1373 cells, 6 days incubation, CTG method) | SMILES
< 100 nM | < 10 nM | – | – | C[C@@H](COCCC(=O)N1CCN2c3ncc(C(F)(F)F)cc3NCC[C@H]2C1)Nc1cn[nH]c(=O)c1C(F)(F)F [Compound 35, 5-(((S)-1-(3-oxo-3-((S)-3-(trifluoromethyl)-6,7,7a, 8,10,11-hexahydropyrazino[1,2-d]pyrido[3,2-b][1,4]diazepine-9(5H)-yl)propoxy)prop-2-yl)amino)-4-(trifluoromethyl)pyridazin-3(2H)-one]
100 to 500 nM | < 10 nM | – | – | C[C@@H](COCCC(=O)N1CCN2c3ncc(C(F)(F)F)cc3C(=O)CC2C1)Nc1cn[nH]c(=O)c1C(F)(F)F (stereo partly drawn) [Compound 37, 8-(3-((S)-2-((6-oxo-5-(trifluoromethyl)-1,6-dihydropyridazin-4-yl)amino)propoxy)propionyl)-3-(trifluoromethyl)-6,6a, 7,8,9,10-hexahydro-5H-pyrazino[1,2-a][1,8]naphthyridin-5-one]
100 to 500 nM | < 10 nM | – | – | C[C@@H](COCCC(=O)N1CCN2c3ncc(C(F)(F)F)cc3C(O)CC2C1)Nc1cn[nH]c(=O)c1C(F)(F)F (some centres unmarked) [Compound 38]
– | < 10 nM | < 100 nM | – | CCN1C(=O)[C@@H]2CN(C(=O)CCOC[C@H](C)Nc3cn[nH]c(=O)c3C(F)(F)F)CCN2c2ncc(C(F)(F)F)cc21 [Compound 40, (S)-5-ethyl-8-(3-((S)-2-((6-oxo-5-(trifluoromethyl)-1,6-dihydropyridazin-4-yl)amino)propoxy)propionyl)-3-(trifluoromethyl)-7,8,9,10-tetrahydro-5H-pyrazino[1,2-a]pyrido[3,2-e]pyrazin-6(6aH)-one]
500 to 5000 nM | < 10 nM | – | – | C[C@@H](COCCC(=O)N1CCN2c3ncc(C(F)(F)F)cc3N(CCO)C(=O)[C@@H]2C1)Nc1cn[nH]c(=O)c1C(F)(F)F [Compound 41, (S)-5-(2-hydroxyethyl)-8-(3-((S)-2-((6-oxo-5-(trifluoromethyl)-1,6-dihydropyridazin-4-yl)amino)propoxy)propionyl)-3-(trifluoromethyl)-7,8,9,10-tetrahydro-5H-pyrazino[1,2-a]pyrido[3,2-e]pyrazino-6(6aH)-one]
500 to 5000 nM | < 10 nM | – | – | C[C@@H](COCCC(=O)N1CCN2c3ncc(C(F)(F)F)cc3C(=O)N(C)C[C@H]2C1)Nc1cn[nH]c(=O)c1C(F)(F)F [Compound 42, (S)-6-methyl-9-(3-((S)-2-((6-oxo-5-(trifluoromethyl)-1,6-dihydropyridazin-4-yl)amino)propoxy)propionyl)-3-(trifluoromethyl)-7,7a, 8,9,10,11-hexahydropyrazino[1,2-a]pyrido[3,2-f][1,4]diazepan-5(6H)-one]
100 to 500 nM | < 10 nM | – | – | C[C@@H](COCCC(=O)N1CCN2c3ncc(C(F)(F)F)cc3N(C)CCC2C1)Nc1cn[nH]c(=O)c1C(F)(F)F (stereo partly drawn) [Compound 43, 5-((((2S)-1-(3-(5-methyl-3-(trifluoromethyl))-6,7,7a, 8,10,11-hexahydropyrazino[1,2-d]pyrido[3,2-b] [1,4]diazepine-9(5H)-yl)-3-oxopropoxy)prop-2-yl)amino)-4-(trifluoromethyl)pyridazin-3(2H)-one]
< 100 nM | < 10 nM | – | – | C[C@@H](COCCC(=O)N1CCN2c3ncc(C(F)(F)F)nc3OCC[C@H]2C1)Nc1cn[nH]c(=O)c1C(F)(F)F [Compound 47, 5-(((S)-1-(3-oxo-3-((S)-3-(trifluoromethyl)-6,7,7a, 8, 10, 11-hexahydro-9H-bipyrazino[2,3-b:1′, 2′-d][1, 4]oxazepane-9-yl)propoxy)prop-2-yl)amino)-4-(trifluoromethyl)pyridazin-3(2H)-one]
< 100 nM | < 10 nM | – | – | C[C@@H](COCCC(=O)N1CCN2c3ncc(C(F)(F)F)nc3N(C)C(=O)[C@H]2C1)Nc1cn[nH]c(=O)c1C(F)(F)F [Compound 48, (R)-5-methyl-8-(3-((S)-2-((6-oxo-5-(trifluoromethyl)-1,6-dihydropyridazin-4-yl)amino)propoxy)propionyl)-3-(trifluoromethyl)-7,8,9, 10-tetrahydro-5H-bipyrazino[1,2-a:2′, 3′-e]pyrazin-6(6aH)-one]
100 to 500 nM | < 10 nM | – | – | C[C@@H](COCCC(=O)N1CCN2c3ncc(C(F)(F)F)c(C#N)c3OC[C@H]2C1)Nc1cn[nH]c(=O)c1C(F)(F)F [Compound 51, (R)-8-(3-((S)-2-((6-oxo-5-(trifluoromethyl)-1,6-dihydropyridazin-4-yl)amino)propoxy)propionyl)-3-(trifluoromethyl)-6,6a, 7,8,9, 10-hexahydropyrazino[1,2-d]pyrido[3,2-b][1, 4]oxazinane-4-carbonitrile]
< 100 nM | < 10 nM | – | – | Cc1c(C(F)(F)F)cnc2c1OC[C@H]1CN(C(=O)CCOC[C@H](C)Nc3cn[nH]c(=O)c3C(F)(F)F)CCN21 [Compound 52, 5-(((S)-1-(3-((R)-4-methyl-3-(trifluoromethyl)-6a, 7,9, 10-tetrahydropyrazino[1,2-d]pyrido[3,2-b][1, 4]oxazinane-8(6H)-yl)-3-oxopropoxy)prop-2-yl)amino)-4-(trifluoromethyl)pyridazin-3(2H)-one]
100 to 500 nM | < 10 nM | – | – | C[C@@H](COCCC(=O)N1CCN2c3ncc(C#N)cc3N(C)C(=O)[C@@H]2C1)Nc1cn[nH]c(=O)c1C(F)(F)F [Compound 53]
< 100 nM | < 10 nM | – | – | C[C@@H](COCCC(=O)N1CCN2c3ncc(C(F)(F)F)nc3N(C)C(=O)[C@@H]2C1)Nc1cn[nH]c(=O)c1C(F)(F)F [Compound 58, (S)-5-methyl-8-(3-((S)-2-((6-oxo-5-(trifluoromethyl)-1,6-dihydropyridazin-4-yl)amino)propoxy)propionyl)-3-(trifluoromethyl)-7,8,9, 10-tetrahydro-5H-bipyrazino[1,2-a:2′, 3′-e]pyrazin-6(6aH)-one]
– | < 10 nM | – | < 100 nM | C[C@@H](COCCC(=O)N1CCN2c3ncc(C(F)(F)F)cc3C=C[C@H]2C1)Nc1cn[nH]c(=O)c1C(F)(F)F [Compound 60]
< 100 nM | < 10 nM | – | – | C[C@@H](COC[C@@H](F)C(=O)N1CCN2c3ncc(C(F)(F)F)cc3N(C)C(=O)[C@@H]2C1)Nc1cn[nH]c(=O)c1C(F)(F)F [Compound 65, (S)-8-((R)-2-fluoro-3-((S)-2-((6-oxo-5-(trifluoromethyl)-1,6-dihydropyridazin-4-yl)amino)propoxy)propionyl)-5-methyl-3-(trifluoromethyl)-7,8,9, 10-tetrahydro-5H-pyrazino[1,2-a]pyrido[3,2-e]pyrazin-6(6aH)-one]
500 to 5000 nM | < 10 nM | – | – | C[C@@H](COC[C@H](F)C(=O)N1CCN2c3ncc(C(F)(F)F)cc3N(C)C(=O)[C@@H]2C1)Nc1cn[nH]c(=O)c1C(F)(F)F [Compound 66, (S)-8-((S)-2-fluoro-3-((S)-2-((6-oxo-5-(trifluoromethyl)-1,6-dihydropyridazin-4-yl)amino)propoxy)propionyl)-5-methyl-3-(trifluoromethyl)-7,8,9, 10-tetrahydro-5H-pyrazino[1,2-a]pyrido[3,2-e]pyrazin-6(6aH)-one]
< 100 nM | < 10 nM | – | – | C[C@@H](COC[C@H](O)C(=O)N1CCN2c3ncc(C(F)(F)F)cc3C=C[C@@H]2C1)Nc1cn[nH]c(=O)c1C(F)(F)F [Compound 71]
< 100 nM | < 10 nM | – | – | C[C@@H](COC[C@@H](O)C(=O)N1CCN2c3ncc(C(F)(F)F)cc3C=C[C@@H]2C1)Nc1cn[nH]c(=O)c1C(F)(F)F [Compound 72]
< 100 nM | < 10 nM | – | – | C[C@@H](COC[C@@H](F)C(=O)N1CCN2c3ncc(C(F)(F)F)cc3C=C[C@@H]2C1)Nc1cn[nH]c(=O)c1C(F)(F)F [Compound 73]
< 100 nM | < 10 nM | – | – | C[C@@H](COC[C@H](F)C(=O)N1CCN2c3ncc(C(F)(F)F)cc3C=C[C@@H]2C1)Nc1cn[nH]c(=O)c1C(F)(F)F [Compound 74]
> 5000 nM | < 10 nM | – | – | C[C@@H](COCCC(=O)N1CCN2c3nc(N)c(C(F)(F)F)cc3COC[C@H]2C1)Nc1cn[nH]c(=O)c1C(F)(F)F [Compound 77, 5-(((S)-1-(3-((R)-2-amino-3-(trifluoromethyl)-7a, 8, 10, 11-tetrahydro-5H-pyrazino[2,1-c]pyrido[2,3-e][1, 4]oxazepane-9(7H)-yl)-3-oxypropoxy)prop-2-yl)amino)-4-(trifluoromethyl)pyridazin-3(2H)-one]
500 to 5000 nM | < 10 nM | – | – | C[C@@H](COCCC(=O)N1CCN2c3ncc(C(F)(F)F)cc3CNC(=O)[C@H]2C1)Nc1cn[nH]c(=O)c1C(F)(F)F [Compound 79, (R)-9-(3-((S)-2-((6-oxo-5-(trifluoromethyl)-1,6-dihydropyridazin-4-yl)amino)propoxy)propionyl)-3-(trifluoromethyl)-5,6,8,9, 10, 11-hexahydropyrazino[1,2-a]pyrido[3,2-f][1, 4]diazepin-7(7aH)-one]
